Here are results for 32 compounds from patent US10858316B2, “Small molecule inhibitors of the MCL-1 oncoprotein and uses thereof” (University of Maryland, Baltimore, priority 2015, dated 2020).

Where “and” joins values, the source holds several entries; their conditions need not be identical. Identical values can stand only once. Like-named read-outs stand apart in the source and are kept apart here.

Experiment [1] has as its system Mcl-1. Kind of experiment: Fluorescence polarization competition assay (FPCA), Mcl-1 / FITC-Bak BH3 peptide. It counts as binding, human. The note with it: for Exp. ΔG diff.: between Mcl-1 and Bcl-xL, positive favors Mcl-1; for Selectivity, Ki (Bcl-xL) divided by Ki (Mcl-1): Mcl-1 over Bcl-xL. The text has this:
(§1) The tagged protein was initially purified from the crude cell lysate by immobilized metal affinity chromatography (IMAC) chromatography (GE Healthcare Life Sciences), and after dialysis to remove the imidazole the affinity tag was cleaved using PreScission Protease (GE Healthcare Life Sciences). A Sephacryl S-200 size exclusion column was used as a final purification step before the protein was concentrated with a 10,000 MWCO centifugal filter concentrator (Millipore).
(§2) Fluorescence polarization experiments were conducted using a BMG PHERAstar FS multimode microplate reader equipped with two PMTs for simultaneous measurements of the perpendicular and parallel fluorescence emission. The assays were performed in black polypropylene 384-well microplate (Costar) with a final volume of 20 microliter. […] Regression analysis was carried out using Origin (OriginLab, Northampton, Mass.) to fit the data to the Hill equation (1) to determine the initial binding affinity (KD) and the IC50 in the FPCA. For the fluorescence polarization competition titrations, an equation derived by Nikolovska-Coleska et al. was used to calculate the Ki from the IC50 data.
(§3) The target molecules were assayed for their abilities to disrupt the Mcl-1-Bak-BH3 PPI in a fluorescence polarization competition (FPC) assay with Mcl-1 and FITC-labeled Bak-BH3 peptide. Further details on the FPC assay can be found in the Supporting Information.
For orientation: In fluorescence polarisation assays a small probe gives low polarisation when free and higher when bound to something large.

For experiment [2], the target named is Mcl-1 (Homo sapiens (Human), UniProt Q07820). The description is as above. The conditions noted are these: for Mcl-1 Exp ΔG: ΔG=−RTlnKi from experimental Ki. In kind it is binding.
From the text: as §1, §2, §3

Another experiment addresses Bcl-xL (Homo sapiens (Human), UniProt Q07817). In words: Fluorescence polarization competition assay, Bcl-xL. In kind it is binding. The conditions noted are these: for Bcl-xL Exp ΔG: ΔG from experimental Ki. The protocol: as §2
The mark [3] stands for this setting: Ki from IC50 by Nikolovska-Coleska equation, NA = no activity, read-out: Bcl-xL Ki.
Where [4] appears, read: FPCA with FITC-Bak, Ki from IC50 by Nikolovska-Coleska equation, read-out: Mcl-1 Ki.

Bcl-xL, sequence (Q07817 whole entry): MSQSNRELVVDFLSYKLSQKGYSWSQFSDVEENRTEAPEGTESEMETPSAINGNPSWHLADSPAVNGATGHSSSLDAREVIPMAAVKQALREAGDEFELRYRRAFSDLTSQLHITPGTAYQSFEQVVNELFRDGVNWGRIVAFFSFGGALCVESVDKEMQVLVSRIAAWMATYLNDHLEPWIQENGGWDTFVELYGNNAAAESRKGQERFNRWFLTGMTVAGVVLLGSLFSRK
Mcl-1 (Homo sapiens (Human), UniProt Q07820), sequence (Q07820 172-327): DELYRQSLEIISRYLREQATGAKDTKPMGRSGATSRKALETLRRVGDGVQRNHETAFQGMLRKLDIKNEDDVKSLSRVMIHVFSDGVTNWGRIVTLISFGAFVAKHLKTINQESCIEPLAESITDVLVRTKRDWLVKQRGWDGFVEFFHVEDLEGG

As to `O=C(O)c1cc(S(=O)(=O)Nc2ccc([N+](=O)[O-])cc2)c2ccccc2c1O` [3ac; MEL-3-005], the “Exp. ΔG diff.” value in the experiment with Mcl-1 [1] is 0.98 kcal/mol. In addition, the “Mcl-1 Exp ΔG” value at Mcl-1 [2] was -7.29 kcal/mol. Besides, at Bcl-xL, the “Bcl-xL Exp ΔG” value is -6.31 kcal/mol.

As for `Cc1cc(Oc2ccc(N(C3CCCC3)S(=O)(=O)c3cc(C(=O)O)c(O)c4ccccc34)cc2)cc(C)c1Cl` [Compound 3bk, 4-(N-(4-(4-Chloro-3,5-dimethylphenoxy)phenyl)-N-cyclopentylsulfamoyl)-1-hydroxy-2-naphthoic Acid], the “Selectivity, Ki (Bcl-xL) divided by Ki (Mcl-1)” value (“Selectivity, Ki (Bcl-xL) divided” for short) in the experiment on Mcl-1 [1] came to 8.8. For the same compound, the Ki (commonly a measure of affinity in units of concentration, obtained from inhibition or displacement) turned out to be 0.033 µM on Mcl-1 [2] (FPCA, read-out: Mcl-1 Ki) and 0.29 ± 0.05 µM at Bcl-xL (setting [3]).

For the compound `O=C(O)c1cc(S(=O)(=O)Nc2cccc3ccccc23)c2ccccc2c1O` [Compound 3p, 1-Hydroxy-4-(N-(naphthalen-1-yl)sulfamoyl)-2-naphthoic Acid], in the experiment with Mcl-1 [1], the “Selectivity, Ki (Bcl-xL) divided” value is 10. Also, the Ki at Mcl-1 [2] (setting [4]) turned out to be 11.2 ± 2 µM; at Bcl-xL (setting [3]) it was 110 ± 45 µM.

For `Cc1cc(Oc2ccc(NS(=O)(=O)c3cc(C(=O)O)c(O)c4ccccc34)cc2)cc(C)c1Cl` [3bi; JY-5-371], in the experiment on Mcl-1 [1], the “Exp. ΔG diff.” value was 0.84 kcal/mol. Moreover, at Mcl-1 [2], the “Mcl-1 Exp ΔG” value was -9.45 kcal/mol. The “Bcl-xL Exp ΔG” value at Bcl-xL is -8.61 kcal/mol.

With `Cc1cc(Oc2ccc(S(=O)(=O)N(Cc3ccccc3)c3ccc(O)c(C(=O)NS(=O)(=O)c4ccc(NCC5CCOCC5)c([N+](=O)[O-])c4)c3)cc2)cc(C)c1Cl` [LC-5-132 33], the values for the Ki at Mcl-1 [2] (setting [4]) and at Bcl-xL (setting [3]) were 1.01 ± 0.08 µM and 1.54 ± 0.226 µM, respectively.

Regarding `O=C(O)c1cc(S(=O)(=O)Nc2ccccc2C(F)(F)F)c2ccccc2c1O` [Compound 3u, 1-Hydroxy-4-(N-(2-(trifluoromethyl)phenyl)sulfamoyl)-2-naphthoic Acid], the “Selectivity, Ki (Bcl-xL) divided” value in the experiment with Mcl-1 [1] is reported as 4.8. The Ki at Mcl-1 [2] (setting [4]) is 4.05 ± 2.11 µM; at Bcl-xL (setting [3]), 19.3 ± 9 µM.

Turning to `O=C(NS(=O)(=O)c1ccc(NCC2CCOCC2)c([N+](=O)[O-])c1)c1ccc(N(Cc2ccccc2)S(=O)(=O)c2ccc(Oc3ccccc3)cc2)cc1O` [LC-5-107 30], the Ki on Mcl-1 [2] (setting [4]) is 1.23 ± 0.152 µM; at Bcl-xL (setting [3]), 1.05 ± 0.146 µM.

For the compound `CC(C)CN(c1ccc(OC(C)C)cc1)S(=O)(=O)c1cc(C(=O)O)c(O)c2ccccc12` [3ba; MEL-2-116], the “Mcl-1 Exp ΔG” value at Mcl-1 [2] was -8.61 kcal/mol. For the same compound, the “Bcl-xL Exp ΔG” value on Bcl-xL is -7.11 kcal/mol.

`Cc1cc(Oc2ccc(N(CC(C)C)S(=O)(=O)c3cc(C(=O)O)c(O)c4ccccc34)cc2)cc(C)c1Cl` [3bj; JY-5-377]: the “Exp. ΔG diff.” value in the experiment with Mcl-1 [1] is on record as 0.45 kcal/mol. Besides, the “Mcl-1 Exp ΔG” value at Mcl-1 [2] was -9.68 kcal/mol. The “Bcl-xL Exp ΔG” value on Bcl-xL is -9.23 kcal/mol.

Take `Cc1cc(Oc2ccc(S(=O)(=O)N(Cc3ccccc3)c3ccc(O)c(C(=O)O)c3)cc2)cc(C)c1Cl` [LC-5-129 29]: the inhibitory constant (Ki) on Mcl-1 [2] (setting [4]) was 1.4 ± 0.47 µM; at Bcl-xL (setting [3]), 1.82 ± 0.234 µM.

With `CC(C)CN(c1ccc(C(=O)O)c(O)c1)S(=O)(=O)c1ccc(-c2ccccc2)cc1` [4jc117-4 13ac], the Ki at Mcl-1 [2] (setting [4]) was 4.11 ± 0.245 µM; at Bcl-xL (setting [3]) it was 10.8 ± 2.55 µM.

On to `Cc1cc(Oc2ccc(N(C3CCCC3)S(=O)(=O)c3cc(C(=O)O)c(O)c4ccccc34)cc2)cc(C)c1Cl` [3bk; JY-5-379], for which the “Exp. ΔG diff.” value in the experiment with Mcl-1 [1] was found to be 1.29 kcal/mol. Besides, on Mcl-1 [2], the “Mcl-1 Exp ΔG” value is -10.20 kcal/mol. Moreover, the “Bcl-xL Exp ΔG” value on Bcl-xL is -8.91 kcal/mol.

With `O=C(O)c1cc(S(=O)(=O)Nc2cccc3ccccc23)c2ccccc2c1O` [3p; EW-2-056], the “Exp. ΔG diff.” value in the experiment with Mcl-1 [1] is 1.35 kcal/mol. Further, the “Mcl-1 Exp ΔG” value on Mcl-1 [2] was -6.75 kcal/mol. Further, at Bcl-xL, the “Bcl-xL Exp ΔG” value was -5.40 kcal/mol.

Take `CC(C)CN(c1ccc(C(=O)O)c(O)c1)S(=O)(=O)c1ccccc1` [4jc117-1 13aa]: the Ki on Mcl-1 [2] (setting [4]) was determined as 192 ± 37.5 µM; at Bcl-xL (setting [3]) it was 154 ± 27.6 µM.

For `COc1ccc(NS(=O)(=O)c2cc(C(=O)O)c(O)c3ccccc23)cc1` [3z; MEL-3-018], the “Exp. ΔG diff.” value with Mcl-1 [1] was determined as 1.06 kcal/mol. At Mcl-1 [2], the “Mcl-1 Exp ΔG” value was -6.71 kcal/mol. In addition, the “Bcl-xL Exp ΔG” value at Bcl-xL is -5.65 kcal/mol.

For the compound `Cc1cc(Oc2ccc(N(Cc3ccccc3)S(=O)(=O)c3cc(C(=O)O)c(O)c4ccccc34)cc2)cc(C)c1Cl` [3bl; JY-5-380], the “Mcl-1 Exp ΔG” value at Mcl-1 [2] is -10.24 kcal/mol. For the same compound, the “Bcl-xL Exp ΔG” value at Bcl-xL is -8.82 kcal/mol.

Regarding `CC(C)CN(c1ccc(O)c(C(=O)O)c1)S(=O)(=O)c1ccc2ccccc2c1` [jy-5-299 18bb], the figures for the Ki at Mcl-1 [2] (setting [4]) and at Bcl-xL (setting [3]) were 7.51 ± 0.84 µM and 44.6 ± 5.93 µM, respectively.

With `CC(C)CN(c1ccc(O)c(C(=O)O)c1)S(=O)(=O)c1ccccc1` [JY-5-296 18ba], the Ki at Mcl-1 [2] (setting [4]) was determined as 46.5 ± 9.82 µM; at Bcl-xL (setting [3]), 49.3 ± 5.03 µM.

With `CC(C)CN(c1ccc(O)c(C(=O)O)c1)S(=O)(=O)c1ccc(-c2ccccc2)cc1` [JY-5-300 18bc], the results for the inhibition constant (Ki) on Mcl-1 [2] (setting [4]) and at Bcl-xL (setting [3]) were 8.7 ± 2.05 µM and 13.9 ± 3.36 µM, respectively.

On to `CS(=O)(=O)NC(=O)c1ccc(N(Cc2ccccc2)S(=O)(=O)c2ccc(Oc3ccccc3)cc2)cc1O` [LC-5-112 27], for which the figures for the Ki on Mcl-1 [2] (setting [4]) and on Bcl-xL (setting [3]) were 2.94 ± 0.35 µM and 7.22 ± 1.07 µM, respectively.

In the case of `Cc1cc(Oc2ccc(S(=O)(=O)N(CC(C)C)c3ccc(C(=O)O)c(O)c3)cc2)cc(C)c1Cl` [Compound 4jc117-6], the Ki at Mcl-1 [2] (fluorescence polarization competition assay, read-out: Ki (μM) Mcl-1) was found to be 0.02 ± 0.012 µM; on Bcl-xL (fluorescence polarization competition assay, read-out: Ki (μM) Bcl-xL) it was 0.05 ± 0.01 µM.

Consider `Cc1cc(CCCNc2ccc(C(=O)O)c(O)c2)cc(C)c1Cl` [LC-5-184 36], for which the Ki at Mcl-1 [2] (setting [4]) was 15.2 ± 1.89 µM; at Bcl-xL (setting [3]), 22.7 ± 4.08 µM.

Take `CC(C)CN(c1ccc(C(=O)O)c(O)c1)S(=O)(=O)c1ccc2ccccc2c1` [4jc117-3 13ab]: the Ki at Mcl-1 [2] (setting [4]) amounted to 13.8 ± 1.32 µM; on Bcl-xL (setting [3]), 43.1 ± 14.7 µM.

With `Cc1cc(Oc2ccc(S(=O)(=O)N(c3ccc(C(=O)O)c(O)c3)C3CCCC3)cc2)cc(C)c1Cl` [LC-4-104 13bc], the Ki was determined as 1.76 ± 0.208 µM on Mcl-1 [2] (setting [4]) and 1.91 ± 0.117 µM at Bcl-xL (setting [3]).

With `O=C(NS(=O)(=O)c1ccccc1)c1ccc(N(Cc2ccccc2)S(=O)(=O)c2ccc(Oc3ccccc3)cc2)cc1O` [LC-5-096 28], the Ki is 1.9 µM and 1.95 µM at Mcl-1 [2] (setting [4]); 2.34 ± 0.221 µM at Bcl-xL (setting [3]).

With `O=C(O)C1Cc2ccccc2N(S(=O)(=O)c2ccc3ccccc3c2)C1` (racemic) [SF-5-134, (±)-1-(naphthalen-2-ylsulfonyl)-1,2,3,4-tetrahydroquinoline-3-carboxylic acid], the Ki on Mcl-1 [2] (read-out: Mcl-1 Ki) came out at 30 µM.

For the compound `O=C(O)c1cc(S(=O)(=O)Nc2cccc(-c3ccccc3)c2)c2ccccc2c1O` [Compound 3s, 4-(N-([1,1′-Biphenyl]-3-yl)sulfamoyl)-1-hydroxy-2-naphthoic Acid], the Ki at Mcl-1 [2] (setting [4]) turned out to be 1.88 ± 0.62 µM.

For `CC(C)CN(c1ccc(C(=O)O)cc1)S(=O)(=O)c1ccc2ccccc2c1` [LC-3-031 8b], the Ki at Mcl-1 [2] (setting [4]) is over 500 µM.

Turning to `O=C(O)c1cc(S(=O)(=O)N2CCCCC2)c2ccccc2c1O` [3i; SF-5-263], the “Mcl-1 Exp ΔG” value on Mcl-1 [2] is -7.54 kcal/mol.

Consider `N#Cc1ccc(NS(=O)(=O)c2cc(C(=O)O)c(O)c3ccccc23)cc1` [Compound 3ab, 4-(N-(4-Cyanophenyl)sulfamoyl)-1-hydroxy-2-naphthoic Acid], for which the Ki on Mcl-1 [2] (setting [4]) was determined as 22.2 ± 1.6 µM.

Turning to `COC(=O)C1Cc2ccccc2N(S(=O)(=O)c2ccc(Oc3cc(C)c(Cl)c(C)c3)cc2)C1` (racemic) [±-9], the “Binding affinity to Mcl-1 in vitro” value on Mcl-1 [2] (FPCA) is “no appreciable affinity”. Also, the inhibition constant (Ki) on Mcl-1 [2] (setting [4]) was over 500 µM.

For the compound `Cc1ccc(NS(=O)(=O)c2cc(C(=O)O)c(O)c3ccccc23)cc1` [Compound 3x, 1-Hydroxy-4-(N-(p-tolyl)sulfamoyl)-2-naphthoic Acid], at Mcl-1 [2] (setting [4]), the Ki turned out to be 34.3 ± 1 µM.
